Where two headings read alike, the source gives them in different places. Each block holds one molecule with its values, some of them ahead of it.
Legend:
[1] = system: pseudo islets (dispersed islet cells); experiment: cells; assay type: cell-based, Sprague Dawley rats; settings: for IC50: dose-dependent, read-out: IC50 of inhibition of glucose-stimulated insulin release; for EC50: 8 mM glucose, read-out: EC50 on insulin release
Method: Pancreata from four Sprague Dawley rats were divided into small pieces approximately 1 mm^2 or smaller in size. The tissue was then rinsed three times with Hanks-Hepes buffer (127 mM NaCl, 5.4 mM KCl, 0.34 mM Na2HPO4, 4.4 mM KH2PO4, 20 mM HEPES, 1.2 mM CaCl2/5 mM glucose), and digested with collagenase (Liberase, 0.25 mg/ml, Roche Diagnostic Corp., Indianapolis, Ind.) at 37° C. in a water bath shaker for 10 minutes.
The digested pancreata tissue was rinsed three times with 50 ml of Hanks-Hepes buffer to remove the collagenase. The tissue pellet was then filtered through a 250 μm filter and the filtrate was mixed with 16 ml of 27% Ficoll (Sigma, St. Louis, Mo.) w/v in Hanks-Hepes buffer. Three layers of Ficoll (23%, 20.5%, and 11%, respectively; 8 ml of each concentration) were then loaded on top of the mixture of islet tissue in 27% Ficoll to form a gradient.
The Ficoll gradient was then centrifuged at 1,600 rpm for 10 minutes at room temperature. The pancreatic islets were concentrated at the interphase between 11% and 20.5%, and between 20.5% and 23% depending on the size of islets. The islets were collected from the two interphases and rinsed twice with Ca^++-free Hanks-Hepes buffer. The islets were then suspended in 5 ml Ca^++-free Hanks-Hepes buffer containing 1 mM EDTA and incubated for 8 minutes at room temperature.
Trypsin and DNAse I were added to the islet suspension for a final concentration of 25 μg/ml and 2 μg/ml, respectively. This suspension was incubated with shaking at 30° C. for 10 minutes. The trypsin digestion was stopped by adding 40 ml RPMI 1640 (GIBCO Life Technologies, Invitrogen, Carlsbad, Calif.) with 10% FBS. The trypsin digested islet cells were then filtered through a 63 μm nylon filter (PGC Scientific, Frederick, Md.) to remove large cell clusters.
The dispersed islet cells were then washed, counted using hemacytometer under the microscope, and seeded into “V-bottom” 96-well plates (2,500 cells per well). However, a range of 1,000 to 10,000 cells per well may used. The dispersed islet cell suspension was then centrifuged at 1,000 rpm for 5 minutes. The Hanks-Hepes buffer was removed and replaced with 200 μl RPMI 1640 medium containing 10% FBS, 1% Penicillin-Streptomycin, and 2 mM L-glutamine. Next, the 96-well plates were centrifuged at 1,000 rpm for 5 minutes to collect the dispersed islet cells concentrated at the V-bottom of the plate forming pseudo islets. These pseudo islets were then cultured overnight in a cell culture incubator at 37° C. with 5% CO2, and then used for assays.
(§1) Pseudo islets were prepared by the method described in Example 1. Following an overnight incubation, the RPMI 1640 medium was removed and replaced by 100 μl Krebs-Ringer-Hepes buffer (115 mM NaCl, 5.0 mM KCl, 24 mM NaHCO3, 2.2 mM CaCl2, 1 mM MgCl2, 20 mM HEPES, 0.25% BSA, 0.002% Phenol Red, pH 7.35-7.40). The cell suspension was then centrifuged for 5 minutes at 1,000 rpm to pellet the dispersed islet cells.
(§2) Pseudo islets in 96-well plates were incubated in a water bath at 37° C. continuously gassed with 95% O2/5% CO2 for pre-incubation for 30 minutes. The pre-incubation buffer was removed and replaced with 50 μl incubation buffer (Krebs-Ringer-Hepes buffer, pH 7.35-7.40) containing various test substrates.
The 96-well plate was centrifuged again at 1,000 rpm for 5 minutes to form pseudo islets. These pseudo islets in 96-well plates were statically incubated in a water bath at 37° C. continuously gassed with 95% O2/5% CO2 for 60 minutes. The incubation buffer (25 μl) was collected after the 60-minute incubation and used for an insulin content assay (ELISA assay, ALPCO, N.H.).

[2] = system: pseudo islets co-cultured with fibroblasts; experiment: Insulin release from pseudo islets co-cultured with fibroblasts; assay type: cell-based, Sprague Dawley rats; settings: increasing amounts of GLP-1
Method: Dispersed islet cells (prepared by the method described in Example 1) were washed with regular RPMI 1640 medium with 10% FBS, counted using hemacytometer under the microscope, and seeded into “V-bottom” 96-well plates with fibroblasts (2,500 islet cells and 1,250 fibroblasts cells per well). The cell suspension was then centrifuged at 1,000 rpm for 5 minutes to collect the dispersed islet cells concentrated at the V-bottom of the plate forming pseudo islets. These pseudo islets were then co-cultured with the fibroblasts cells overnight in a cell culture incubator at 37° C. with 5% CO2, and then used for assays.
as §1
as §2, with “substrates. […]” for “substrates.”

Structure (SMILES): NC[C@H](O)c1ccc(O)c(O)c1 [NE, norepinephrine]
IC50 ([1]; Rattus norvegicus): 0.0567 µM

Structure (SMILES): CC(C)Cn1c(=O)n(C)c(=O)c2[nH]cnc21 [IBMX]
EC50 [1]: 21.9 µM

Structure (SMILES): C[C@H](N)C(=O)NCC(=O)N[C@H]1CSSC[C@@H](C(=O)O)NC(=O)[C@H](CO)NC(=O)[C@H]([C@@H](C)O)NC(=O)[C@H](Cc2ccccc2)NC(=O)[C@H]([C@@H](C)O)NC(=O)[C@H](CCCCN)NC(=O)[C@H](Cc2c[nH]c3ccccc23)NC(=O)[C@H](Cc2ccccc2)NC(=O)[C@H](Cc2ccccc2)NC(=O)[C@H](CC(N)=O)NC(=O)[C@H](CCCCN)NC1=O [somatostain]
IC50 [1]: 0.0009 µM

Structure (SMILES): CC[C@H](C)[C@H](NC(=O)[C@H](Cc1ccccc1)NC(=O)[C@H](CCC(=O)O)NC(=O)[C@H](CCCCN)NC(=O)[C@H](C)NC(=O)[C@H](C)NC(=O)[C@H](CCC(N)=O)NC(=O)CNC(=O)[C@H](CCC(=O)O)NC(=O)[C@H](CC(C)C)NC(=O)[C@H](Cc1ccc(O)cc1)NC(=O)[C@H](CO)NC(=O)[C@H](CO)NC(=O)[C@@H](NC(=O)[C@H](CC(=O)O)NC(=O)[C@H](CO)NC(=O)[C@@H](NC(=O)[C@H](Cc1ccccc1)NC(=O)[C@@H](NC(=O)CNC(=O)[C@H](CCC(=O)O)NC(=O)[C@H](C)NC(=O)[C@@H](N)Cc1c[nH]cn1)[C@@H](C)O)[C@@H](C)O)C(C)C)C(=O)N[C@@H](C)C(=O)N[C@@H](Cc1c[nH]c2ccccc12)C(=O)N[C@@H](CC(C)C)C(=O)N[C@H](C(=O)N[C@@H](CCCCN)C(=O)NCC(=O)N[C@@H](CCCNC(=N)N)C(N)=O)C(C)C [GLP-1]
GLP-1 mediated insulin secretion on co-culture with fibroblasts [2]: enhanced

Other lines, results leading:

EC50 ([1]; Rattus norvegicus): 0.9 µM
Structure (SMILES): C=C[C@@]1(C)CC(=O)[C@]2(O)[C@@]3(C)[C@@H](O)CCC(C)(C)[C@@H]3[C@H](O)[C@H](OC(C)=O)[C@@]2(C)O1 [forskolin]

EC50 ([1]; Rattus norvegicus): 0.37 µM
Structure (SMILES): COc1ccc(Cl)cc1C(=O)NCCc1ccc(S(=O)(=O)NC(=O)NC2CCCCC2)cc1 [glybenclamide]

EC50 ([1]; Rattus norvegicus): 10.1 µM
Structure (SMILES): CC(=O)OCC[N+](C)(C)C [Ach, Acetylcholine]

Source: patent US20040005299A1, “Method for producing pseudo islets” (Bayer Pharmaceuticals Corporation, priority 2002, published 2004)
